According to patent US9492508B2, “Parathyroid hormone analogs and uses thereof” (The General Hospital Corporation, priority 2010, dated 2016):
Square brackets hold non-standard residues; d marks the D form. Ends that are not written are not given here. hArg = N=C(N)NCCCC[C@H](N)C(=O)O; Aib = CC(C)(N)C(=O)O

T1: rat PTH receptor (rat, UniProt P25961 27-591, limits assumed)
T1 construct: R0 and RG conformations assayed separately by the method of WO 2009/017809 or a similar one; also called rat PTHR1
T1 sequence (looked up): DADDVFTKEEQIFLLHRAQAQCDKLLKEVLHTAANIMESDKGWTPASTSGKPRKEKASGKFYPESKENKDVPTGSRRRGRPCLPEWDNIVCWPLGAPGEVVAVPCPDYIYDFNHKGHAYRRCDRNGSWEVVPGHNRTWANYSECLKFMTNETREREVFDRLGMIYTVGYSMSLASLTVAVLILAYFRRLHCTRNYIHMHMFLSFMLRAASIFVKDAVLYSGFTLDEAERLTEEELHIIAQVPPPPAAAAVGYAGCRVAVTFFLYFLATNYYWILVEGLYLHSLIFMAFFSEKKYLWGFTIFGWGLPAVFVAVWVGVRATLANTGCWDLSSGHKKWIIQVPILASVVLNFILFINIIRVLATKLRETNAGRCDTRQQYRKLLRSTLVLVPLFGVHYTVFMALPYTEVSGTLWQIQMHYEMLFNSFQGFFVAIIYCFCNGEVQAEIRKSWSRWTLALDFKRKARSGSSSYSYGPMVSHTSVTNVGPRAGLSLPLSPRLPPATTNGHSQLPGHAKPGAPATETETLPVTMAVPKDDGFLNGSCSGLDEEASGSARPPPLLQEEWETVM

T2: human PTH-1 receptor (human, UniProt Q03431 27-593)
T2 construct: whole, on cells; also called human PTHR1; human PTH receptor
T2 sequence (looked up): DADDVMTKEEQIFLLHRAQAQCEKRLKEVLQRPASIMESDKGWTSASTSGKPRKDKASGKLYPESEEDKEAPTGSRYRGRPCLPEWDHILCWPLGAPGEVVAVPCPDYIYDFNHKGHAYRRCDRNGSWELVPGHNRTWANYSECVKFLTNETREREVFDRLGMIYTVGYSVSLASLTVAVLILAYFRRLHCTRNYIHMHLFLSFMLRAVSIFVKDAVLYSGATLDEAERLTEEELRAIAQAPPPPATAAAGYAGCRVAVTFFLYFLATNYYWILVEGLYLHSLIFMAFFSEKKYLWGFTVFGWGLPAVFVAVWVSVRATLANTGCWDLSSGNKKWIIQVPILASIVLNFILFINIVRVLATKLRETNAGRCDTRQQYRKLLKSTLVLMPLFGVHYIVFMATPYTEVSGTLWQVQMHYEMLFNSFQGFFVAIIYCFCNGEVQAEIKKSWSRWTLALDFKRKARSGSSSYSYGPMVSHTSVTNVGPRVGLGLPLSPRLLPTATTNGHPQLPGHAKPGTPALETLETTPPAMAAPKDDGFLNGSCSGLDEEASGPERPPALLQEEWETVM


What was measured:
[1] = Peptide pharmacokinetics in TPTX rats
rat PTH receptor = target: T1, rat PTH receptor; test: radioligand displacement, rat PTHR1, R0 conformation
human PTH-1 receptor [2] = target: T2, human PTH-1 receptor; test: radioligand competition, human PTHR1 in COS-7 membranes, R0 conformation
Method: (§1) Here, competition binding assays for the R⁰ and RG PTHR1 conformation were performed in membranes prepared from transfected COS-7 cells, as described by Dean et al., Mol Endocrinol 22:156-66, 2008. Data are means of three experiments, each performed in duplicate. Curves were fit to the data using Graph-Pad Prism 4.0.

human PTH-1 receptor [3] = target: T2, human PTH-1 receptor; test: radioligand competition, human PTHR1 in COS-7 membranes, RG conformation
Method: as §1

[4] = Crl:CD(SD), rat, in vivo, iv, 24.3 nmol/kg
[5] = TPTX rats, 24.3 nmol/kg intravenously, mean

Molecule | MRT [1, 4] [min] | Vd [1, 4] [L/kg] | clearance [1, 4] [mL/min/kg] | half-life [1, 4] [min] | AUCinf [1, 5] [pmol·min/mL] | AUClast [1, 5] [pmol·min/mL] | IC50 (rat PTH receptor) [pM] | IC50 (human PTH-1 receptor [2]) [pM] | IC50 (human PTH-1 receptor [3]) [pM]
CC[C@H](C)[C@H](NC(=O)[C@H](CCC(=O)O)NC(=O)[C@H](CO)NC(=O)[C@@H](NC(=O)[C@@H](N)CO)C(C)C)C(=O)N[C@@H](CCC(N)=O)C(=O)N[C@@H](CC(C)C)C(=O)N[C@@H](CCSC)C(=O)N[C@@H](Cc1c[nH]cn1)C(=O)N[C@@H](CC(N)=O)C(=O)N[C@@H](CC(C)C)C(=O)NCC(=O)N[C@@H](CCCCN)C(=O)N[C@@H](Cc1c[nH]cn1)C(=O)N[C@@H](CC(C)C)C(=O)N[C@@H](CC(N)=O)C(=O)N[C@@H](CO)C(=O)N[C@@H](CCSC)C(=O)N[C@@H](CCC(=O)O)C(=O)N[C@@H](CCCNC(=N)N)C(=O)N[C@H](C(=O)N[C@@H](CCC(=O)O)C(=O)N[C@@H](Cc1c[nH]c2ccccc12)C(=O)N[C@@H](CC(C)C)C(=O)N[C@@H](CCCNC(=N)N)C(=O)N[C@@H](CCCCN)C(=O)N[C@@H](CCCCN)C(=O)N[C@@H](CC(C)C)C(=O)N[C@@H](CCC(N)=O)C(=O)N[C@@H](CC(=O)O)C(=O)N[C@H](C(=O)N[C@@H](Cc1c[nH]cn1)C(=O)N[C@@H](CC(N)=O)C(=O)N[C@@H](Cc1ccccc1)C(=O)N[C@H](C(=O)N[C@@H](C)C(=O)N[C@@H](CC(C)C)C(=O)NCC(=O)N[C@@H](C)C(=O)N1CCC[C@H]1C(=O)N[C@@H](CC(C)C)C(=O)N[C@@H](C)C(=O)N1CCC[C@H]1C(=O)N[C@@H](CCCNC(=N)N)C(=O)N[C@@H](CC(=O)O)C(=O)N[C@@H](C)C(=O)NCC(=O)N[C@@H](CO)C(=O)N[C@@H](CCC(N)=O)C(=O)N[C@@H](CCCNC(=N)N)C(=O)N1CCC[C@H]1C(=O)N[C@@H](CCCNC(=N)N)C(=O)N[C@@H](CCCCN)C(=O)N[C@@H](CCCCN)C(=O)N[C@@H](CCC(=O)O)C(=O)N[C@@H](CC(=O)O)C(=O)N[C@@H](CC(N)=O)C(=O)N[C@H](C(=O)N[C@@H](CC(C)C)C(=O)N[C@H](C(=O)N[C@@H](CCC(=O)O)C(=O)N[C@@H](CO)C(=O)N[C@@H](Cc1c[nH]cn1)C(=O)N[C@@H](CCC(=O)O)C(=O)N[C@@H](CCCCN)C(=O)N[C@@H](CO)C(=O)N[C@@H](CC(C)C)C(=O)NCC(=O)N[C@@H](CCC(=O)O)C(=O)N[C@@H](C)C(=O)N[C@@H](CC(=O)O)C(=O)N[C@@H](CCCCN)C(=O)N[C@@H](C)C(=O)N[C@@H](CC(=O)O)C(=O)N[C@H](C(=O)N[C@@H](CC(N)=O)C(=O)N[C@H](C(=O)N[C@@H](CC(C)C)C(=O)N[C@H](C(=O)N[C@@H](CCCCN)C(=O)N[C@@H](C)C(=O)N[C@@H](CCCCN)C(=O)N[C@@H](CO)C(=O)N[C@@H](CCC(N)=O)C(=O)O)[C@@H](C)O)C(C)C)C(C)C)C(C)C)C(C)C)C(C)C)C(C)C)C(C)C [hPTH (1-84), hPTH(1-84)] | 3.58 | 0.0662 | 17.2 | 5.44 | 1663 | 1663 | – | – | –
AV[Aib]EIQLMHQ[hArg]AKWIQDLRRRFFLHHLIAEIHTAEI-NH2 (N-terminus assumed; SMILES CC[C@H](C)[C@H](NC(=O)[C@H](CCC(=O)O)NC(=O)[C@H](C)NC(=O)[C@@H](NC(=O)[C@H](Cc1c[nH]cn1)NC(=O)[C@@H](NC(=O)[C@H](CCC(=O)O)NC(=O)[C@H](C)NC(=O)[C@@H](NC(=O)[C@H](CC(C)C)NC(=O)[C@H](Cc1c[nH]cn1)NC(=O)[C@H](Cc1c[nH]cn1)NC(=O)[C@H](CC(C)C)NC(=O)[C@H](Cc1ccccc1)NC(=O)[C@H](Cc1ccccc1)NC(=O)[C@H](CCCNC(=N)N)NC(=O)[C@H](CCCNC(=N)N)NC(=O)[C@H](CCCNC(=N)N)NC(=O)[C@H](CC(C)C)NC(=O)[C@H](CC(=O)O)NC(=O)[C@H](CCC(N)=O)NC(=O)[C@@H](NC(=O)[C@H](Cc1c[nH]c2ccccc12)NC(=O)[C@H](CCCCN)NC(=O)[C@H](C)NC(=O)[C@H](CCCCNC(=N)N)NC(=O)[C@H](CCC(N)=O)NC(=O)[C@H](Cc1c[nH]cn1)NC(=O)[C@H](CCSC)NC(=O)[C@H](CC(C)C)NC(=O)[C@H](CCC(N)=O)NC(=O)[C@@H](NC(=O)[C@H](CCC(=O)O)NC(=O)C(C)(C)NC(=O)[C@@H](NC(=O)[C@H](C)N)C(C)C)[C@@H](C)CC)[C@@H](C)CC)[C@@H](C)CC)[C@@H](C)CC)[C@@H](C)O)C(N)=O, Synthetic hybrid analog of human PTH(1-14) and human PTHrP(15-36); also called Super-potent Aib-PTH; M-PTH(1-14)/rP(15-36)NH2) [Aib-SP-PTH ([Ala1,12,Aib3,Gln10,Har11,Trp14]PTH(1-14)/PTHrP(15-36))] | – | – | – | – | – | – | 930 | 1800 | 690
